From US11241434B2, “Compositions and methods for improving cognition in a subject” (Yale University, priority 2013, dated 2022)

Columns and labels:
[1] = system: Fyn (p-SFK) and eEF2 phosphorylation in cortical neurons; assay: Aβo-induced Fyn activation and eEF2 phosphorylation in cortical neurons (immunoblot); assay type: cell-based, mouse
Protocol: FIG. 2A: DIV21 cortical neurons from wild type or Prnp−/− mice were treated with or without Aβo for 5 min. Whole cell lysates were analyzed by anti-phospho-eEF2, anti-eEF2, or anti-PrP^C immunoblot. Aβo increased p-eEF2/eEF2 ratio to 210±20% of baseline in WT cultures (mean±sem, n=3), but there was no significant increase in Prnp−/− cultures. FIG. 2B: DIV21 cortical neurons from wild type mice were treated with the indicated human control or AD brain extracts (30 μg total protein/ml) for 5 min. Whole cell lysates were analyzed by anti-phospho-eEF2 or anti-eEF2 immunoblot. AD, but not control (Con), brain extracts increased p-eEF2/eEF2 ratio to 200±10% of untreated cultures (mean±sem, n=4). FIG. 2C: Wild type cortical neurons were treated with or without Aβo for 15 min. […] Whole cell lysates were analyzed by anti-phospho-SFK, anti-Fyn, anti-phospho-eEF2, or anti-eEF2 immunoblot. GAPDH served as a loading control. FIG. 2D: Quantification of phospho-eEF2 level normalized to eEF2 immunoreactivity from four independent experiments. Mean±sem; *, P<0.05, n.s., not significant; One-way ANOVA, with Tukey post-hoc pairwise comparisons.
Because spine turnover is dependent on protein translation machinery, and because both Aβo and Fyn have been linked to mGluR5, a downstream effector of mGluR5-regulated protein translation, the eukaryotic elongation factor 2 (eEF2), was considered. The eEF2 pathway is regulated by phosphorylation and is dysregulated in AD. A3o treatment of cortical neurons increases eEF2 phosphorylation at 5 min (FIG. 2A). Genetic analysis confirmed that the Aβo effect on eEF2 phosphorylation depends on PrP^C (FIG. 2A).
It was tested whether phosphorylation of eEF2 induced by Aβo depends on AZD0530-sensitive Fyn kinase activation. […] Thus, AZD0530 prevented Aβo/PrP-induced, Fyn-dependent neuronal signaling in vitro.

[2] = system: APPswe/PS1ΔE9 transgenic mice; assay: Novel Object Recognition in AD transgenic mice; assay type: in vivo, mouse; settings: 5 weeks treatment
[3] = Saracatinib drug levels in mouse brain, plasma and CSF (LC/MS/MS); assay type: in vivo; settings: 5 mg/kg/d; for peak CSF level / trough CSF level: one pooled sample
Protocol: Data are mean±sem for separate mice for all points except CSF where samples pooled.
In an initial cohort after 6 doses, samples were collected 30-60 minutes after dosing to obtain a peak level (FIG. 6). Drug levels were measured with an LC/MS/MS method validated for clinical samples.

[4] = system: mice with closed head injury (CHI) and chronic variable stress (CVS); assay: Immunohistochemistry of cerebral cortex after head injury plus stress; assay type: in vivo, mouse; settings: subacute TBI/Stress mice
Excerpt: FIGS. 16A-16F illustrate the finding that AZD0530 treatment prevents phospho-Tau accumulation after head injury plus stress. […] Boxed area is shown at higher magnification inset. Scale bar, m. FIG. 16B: PHF-1 IHC quantification using ImageJ software measuring total stained area, yielded significant differences amongst the three groups. Data are mean±SEM. n=5/group, each dot is one mouse. One way ANOVA: F(2,12)=9.967, p=0.0028, Tukey's multiple comparison test: SV vs IV: p=0.0077, IV vs IA: p=0.0046. […] Scale bar, 20 μm. […] Data are mean±SEM. n=5/group, each dot is one mouse. […] Scale bar, 20 μm. […] Data are mean±SEM. n=5/group, each dot is one mouse.
Immunohistochemistry was performed as previously described (Kaufman et al., 2015, Ann Neurol 77:953-971) with slight modifications. Forty m coronal sections of the right hemisphere were cut with a Leica VT1000S Vibratome. Antigen retrieval was performed on the forty m free-floating sections by incubating three slices from each mouse in 1× Reveal decloaker buffer (Biocare Medical) in 24-well-plates for 10 minutes at 90° C. in an oven and then cooled down at room temperature for 10 minutes. The antigen retrieval step was done for PHF1, AT8, and GFAP stainings. Sections were permeabilized with 0.1% Triton X-100 at room temperature for 5 minutes for PHF1 and SV2A staining and for 30 minutes for CD68/Ibal, AT8, and GFAP. All sections were blocked with 10% donkey, horse, or goat serum in PBS for one hour at room temperature. The sections were then incubated in primary antibody in 4% donkey, horse, or goat serum in PBS overnight at room temperature. For SV2A and PHF1 stainings, primary antibodies were incubated at 4° C. rather than room temperature. […]
For imaging and analysis of sections from the transgenic Tauopathy studies, Nikon Eclipse Ti Spinning Disc Confocal Microscope was used with a 40×1.3 NA oil-immersion lens in Cargille immersion oil. […] The dentate gyrus, CA1, and CA3 of mice were imaged and the percent positive area for each staining was analyzed with a macro in ImageJ or a pipeline in CellProfiler. […]

[5] = dog, 6 month study, cited from earlier work
[6] = saracatinib 1 hour prior to Aβo, Aβo 15 min

SMILES: CN1CCN(CCOc2cc(OC3CCOCC3)c3c(Nc4c(Cl)ccc5c4OCO5)ncnc3c2)CC1 [saracatinib, N-(5-chloro-benzo[d][1,3]dioxol-4-yl)-7-(2-(4-methylpiperazin-1-yl)ethoxy)-5-(tetrahydro-2H-pyran-4-yloxy)quinazolin-4-amine]
- basal p-SFK levels ([1]; cortical neurons, saracatinib 1 hour): suppressed
- Aβo stimulation of target kinase (p-SFK) [1, 6]: fully prevented
- Aβo-induced increase of eEF2 phosphorylation [1, 6]: fully blocked
- Novel Object Recognition performance [2]: performance equal to the WT mice
- peak brain level [3]: 50 nM
- trough brain level ([3]; 5 mg/kg/day): 19 to 46 nM
- peak brain level ([3]; as free base): 27 ng/g
- peak CSF level [3]: 13 nM
- trough CSF level [3]: 8.9 nM
- peak CSF level ([3]; as free base): 7 ng/mL
- trough CSF level ([3]; as free base): 4.6 ng/mL
- PHF-1 immunoreactivity area in cerebral cortex ([4]; 0.5-1.0 mm medial to injury site): dramatically reduced
- GFAP IHC % area ([4]; three groups): did not result in groups differences
- total Tau IHC mean intensity ([4]; three groups): did not show significant differences
- toxicity ([5]; 5 mg/kg/d): mild GI toxicity
- NOAEL [5]: 0.5 mg/kg/day
